From US20260083751A1, “ALLOSTERIC MODULATORS OF ANDROGEN RECEPTOR COACTIVATOR RECRUITMENT FOR CRPC THERAPY” (University of Pittsburgh – Of the Commonwealth System of …, priority 2022, published 2026)
Like-named read-outs stand apart in the source and are kept apart here.

Biological target: T1, AR-LBD PPI interactions with TIF2 and SRC1 coactivators (Homo sapiens, UniProt P10275)
T1 construct: AR-LBD amino acids 658-919 expressed as a fusion protein with Gal4-DBD; expressed in transfected cells; host or cells: HEK 293, transient co-transfection
T1 sequence (P10275 659-920): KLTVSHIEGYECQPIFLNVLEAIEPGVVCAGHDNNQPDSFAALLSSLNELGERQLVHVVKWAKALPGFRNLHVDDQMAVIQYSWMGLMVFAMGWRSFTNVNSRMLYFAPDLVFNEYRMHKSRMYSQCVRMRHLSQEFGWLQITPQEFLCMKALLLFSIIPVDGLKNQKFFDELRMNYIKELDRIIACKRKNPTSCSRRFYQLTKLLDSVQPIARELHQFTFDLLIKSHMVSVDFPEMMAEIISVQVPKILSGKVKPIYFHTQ
Experiment: TIF2 and SRC1 mammalian 2-hybrid assays, results stated jointly
Type: cell-based
Conditions: for IC50: both M2H assays
Text: TIF2 and SRC1 Mammalian 2-Hybrid Assays: The 5×GAL4-TATA-luciferase reporter plasmid was a gift from Dr. Richard Maurer from the Oregon Health and Science University (Gonzalez et al., Cell 1989, 59:675-80), and constructs pGAL4-hAR-658-919 (AR-LBD amino acids 658-919 expressed as a fusion protein with Gal4-DBD) (Askew et al., J Biol Chem 2007, 282:25801-16), pVP16-SRC1 (full-length SRC1 expressed as a fusion with VP16 activation domain) (He et al., J Biol Chem 1999, 274:37219-25) and pVP16-Empty vectors were kindly provided to us by Dr. Elizabeth Wilson, from UNC Chapel Hill. pVP16-TIF2 was generated as described previously (Fancher et al., Assay Drug Dev Technol. 2019, 17:364-386). HEK 293 cells were transiently co-transfected with 5 ng of pGal4-AR-LBD, 10 ng of either pVP16-TIF2 or pVP16-SRC1, and 20 ng of the 5×Gal4-TATA-Luc reporter as described previously (Ibid.). HEK 293 cells were bulk co-transfected with the three plasmids that had been individually incubated with FuGENE® 6 transfection agent (Fugent LLC, Middleton, WI) at a 3:1 ratio for 25 min at room temperature (RT) in serum free media (SFM) and then combined with HEK 293 cells that were suspended in DMEM (Cellgro10013CV) with 2 mM L-glutamine (Invitrogen) that was supplemented with 10% fetal bovine serum, and 5,000 cells in a volume of 40 μL were seeded into the wells of white opaque 384-well assay plates (Greiner Bio-one, #781080) and cultured overnight at 37° C., 5% CO2, and 95% humidity. […] 25 μL of BrightGlo® reagent (Promega, Madison, WI) was added to the plate and the relative luminescence units (RLUs) were captured on a SpectraMax® M5e microtiter plate reader (Molecular Devices, LLC, San Jose, CA).

[1] = IC50s in TIF2 and SRC-1 M2H assays (potency range in words)
[2] = read-out: IC50s, DHT-induced AR-LBD PPI interactions with TIF2 and SRC1 coactivators

| SMILES | Fold difference of M2H IC50s to IC50 for AR-TIF2 PPI disruption [fold] | IC50 [1] [µM] | IC50 [2] [µM] | Fold M2H IC50s less than corresponding AR-TIF2 biosensor IC50s [fold] | Fold lower IC50 for TIF2 than SRC1 (CoA selectivity) [fold] |
| --- | --- | --- | --- | --- | --- |
| Cc1ccccc1-c1cc(O)c2c(c1)CN(c1nc(C(N)=O)cs1)CCO2 [Compound S1-1] | ~5 | 1 to 10 | – | – | – |
| Cc1c(-c2ccccc2F)[nH]c2ccc(CNC(=O)CCc3cn[nH]c3)cc12 [Compound S3-11] | – | 1 to 10 | < 10 | – | – |
| Cc1nc(N)cc(N2CCOc3c(O)cc(-c4ccccc4C)cc3C2)n1 [Compound S1-2] | – | 1 to 10 | – | – | – |
| Cc1ccccc1-c1cc(O)c2c(c1)CN(c1nccs1)CCO2 [Compound S1-3] | – | 1 to 10 | – | – | – |
| Cc1c(-c2ccccc2F)[nH]c2ccc(CNC(=O)c3ccc(CO)o3)cc12 [Compound S3-14] | – | 1 to 10 | < 10 | – | – |
| COc1cc(-c2ccc(C)s2)cc2c1OCCN(c1nc(C(N)=O)cs1)C2 [Compound S1-5] | – | 10 to 100 | 20 to 42 | – | – |
| Cc1nsc(NC(=O)N2CCC(Sc3ccccc3C)CC2)n1 [Compound S2-6] | – | < 1 | – | ~10 | ~5 |
| CC(=O)NCCC(=O)NCc1ccc2[nH]c(-c3ccccc3F)c(C)c2c1 [Compound S3-13] | – | 10 to 100 | 10 to 20 | – | – |
| Cc1c(-c2ccc(F)cc2)[nH]c2ccc(CNC(=O)c3ccc(CO)o3)cc12 [Compound S3-15] | – | 1 to 10 | < 10 | – | – |
| Cc1c(-c2ccccc2F)[nH]c2ccc(CNC(=O)CCc3cnccn3)cc12 [Compound S3-12] | – | 1 to 10 | < 10 | – | – |
| CNC(=O)c1ccc(-c2c[nH]c3c(C)cccc23)cc1 [Compound S3-21] | – | 10 to 100 | 10 to 20 | – | – |
| Cc1cccc2c(-c3ccc(O)c(F)c3)c[nH]c12 [Compound S3-17] | – | 10 to 100 | 10 to 20 | – | – |
